Key:
[1] = target: human Na,K-ATPase α2β1FXYD1 (Homo sapiens, UniProt P50993); assay: biochemical; assay type: biochemical
[2] = system: human Na,K-ATPase α2β3FXYD1; assay: biochemical; assay type: biochemical
[3] = system: IOP in rabbits; assay: Lowering of basal IOP in rabbits, topical; assay type: in vivo, New Zealand white rabbits; conditions: one drop of 1 mM solution, other eye PBS

Structure (SMILES)	Selectivity Ki ratio α1β1/α2β1 [1]	Selectivity Ki ratio α1β1/α2β3 [2]	effect on lowering the basal IOP [3]
CC1CN(Cc2ccccc2)CCC(O[C@@H]2C(C)O[C@@H](OC3C(C)OC(O[C@H]4CC[C@@]5(C)C(CCC6C5CC(O)[C@]5(C)[C@@H](C7=CC(=O)OC7)CC[C@]65O)C4)C[C@@H]3O)C[C@@H]2O)O1 (stereo in doubt) [DBz, 4-((3S,5R,8R,9S,10S,12R,13S,14S,17R)-3-(((2S,4S,5R,6R)-5-(((2S,4S,5S,6R)-5-((4-benzyl-2-methyl-1,4-oxazepan-7-yl)oxy)-4-hydroxy-6-methyltetrahydro-2H-pyran-2-yl)oxy)-4-hydroxy-6-methyltetrahydro-2H-pyran-2-yl)oxy)-12,14-dihydroxy-10,13-dimethylhexadecahydro-1H-cyclopenta[a]phenanthren-17-yl)furan-2(5H)-one]	5.7	10-12	
CC1CN(CCS(N)(=O)=O)CCC(O[C@@H]2C(C)O[C@@H](OC3C(C)OC(O[C@H]4CC[C@@]5(C)C(CCC6C5CC(O)[C@]5(C)[C@@H](C7=CC(=O)OC7)CC[C@]65O)C4)C[C@@H]3O)C[C@@H]2O)O1 (stereo in doubt) [DESA, 2-(7-(((2R,3S,4S,6S)-6-(((2R,3R,4S,6S)-6-(((3S,5R,8R,9S,10S,12R,13S,14S,17R)-12,14-dihydroxy-10,13-dimethyl-17-(5-oxo-2,5-dihydrofuran-3-yl)hexadecahydro-1H-cyclopenta[a]phenanthren-3-yl)oxy)-4-hydroxy-2-methyltetrahydro-2H-pyran-3-yl)oxy)-4-hydroxy-2-methyltetrahydro-2H-pyran-3-yl)oxy)-2-methyl-1,4-oxazepan-4-yl)ethanesulfonamide]	7.7	15	
CC1CN(CCS(C)(=O)=O)CCC(O[C@@H]2C(C)O[C@@H](OC3C(C)OC(O[C@H]4CC[C@@]5(C)C(CCC6C5CC(O)[C@]5(C)[C@@H](C7=CC(=O)OC7)CC[C@]65O)C4)C[C@@H]3O)C[C@@H]2O)O1 (stereo in doubt) [DESM, 4-((3S,5R,8R,9S,10S,12R,13S,14S,17R)-12,14-dihydroxy-3-(((2S,4S,5R,6R)-4-hydroxy-5-(((2S,4S,5S,6R)-4-hydroxy-6-methyl-5-((2-methyl-4-(2-(methylsulfonyl)ethyl)-1,4-oxazepan-7-yl)oxy)tetrahydro-2H-pyran-2-yl)oxy)-6-methyltetrahydro-2H-pyran-2-yl)oxy)-10,13-dimethylhexadecahydro-1H-cyclopenta[a]phenanthren-17-yl)furan-2(5H)-one]	9.4		
CC1CN(CCC2CC2)CCC(O[C@@H]2C(C)O[C@@H](OC3C(C)OC(O[C@H]4CC[C@@]5(C)C(CCC6C5CC(O)[C@]5(C)[C@@H](C7=CC(=O)OC7)CC[C@]65O)C4)C[C@@H]3O)C[C@@H]2O)O1 (stereo in doubt) [DEcP, 4-((3S,5R,8R,9S,10S,12R,13S,14S,17R)-3-(((2S,4S,5R,6R)-5-(((2S,4S,5S,6R)-5-((4-(2-cyclopropylethyl)-2-methyl-1,4-oxazepan-7-yl)oxy)-4-hydroxy-6-methyltetrahydro-2H-pyran-2-yl)oxy)-4-hydroxy-6-methyltetrahydro-2H-pyran-2-yl)oxy)-12,14-dihydroxy-10,13-dimethylhexadecahydro-1H-cyclopenta[a]phenanthren-17-yl)furan-2(5H)-one]		10-12	
CC1CN(CC2CC(C)(C)C2)CCC(O[C@@H]2C(C)O[C@@H](OC3C(C)OC(O[C@H]4CC[C@@]5(C)C(CCC6C5CC(O)[C@]5(C)[C@@H](C7=CC(=O)OC7)CC[C@]65O)C4)C[C@@H]3O)C[C@@H]2O)O1 (stereo in doubt) [DMDMcB, 4-((3S,5R,8R,9S,10S,12R,13S,14S,17R)-3-(((2S,4S,5R,6R)-5-(((2S,4S,5 S,6R)-5-((4-((3,3-dimethylcyclobutyl)methyl)-2-methyl-1,4-oxazepan-7-yl)oxy)-4-hydroxy-6-methyltetrahydro-2H-pyran-2-yl)oxy)-4-hydroxy-6-methyltetrahydro-2H-pyran-2-yl)oxy)-12,14-dihydroxy-10,13-dimethylhexadecahydro-1H-cyclopenta[a]phenanthren-17-yl)furan-2(5H)-one]		10-12	
CC1CN(CS(C)(=O)=O)CCC(O[C@@H]2C(C)O[C@@H](OC3C(C)OC(O[C@H]4CC[C@@]5(C)C(CCC6C5CC(O)[C@]5(C)[C@@H](C7=CC(=O)OC7)CC[C@]65O)C4)C[C@@H]3O)C[C@@H]2O)O1 (stereo in doubt) [DMSM, 4-((3S,5R,8R,9S,10S,12R,13S,14S,17R)-12,14-dihydroxy-3-(((2S,4S,5R,6R)-4-hydroxy-5-(((2S,4S,5S,6R)-4-hydroxy-6-methyl-5-((2-methyl-4-((methylsulfonyl)methyl)-1,4-oxazepan-7-yl)oxy)tetrahydro-2H-pyran-2-yl)oxy)-6-methyltetrahydro-2H-pyran-2-yl)oxy)-10,13-dimethylhexadecahydro-1H-cyclopenta[a]phenanthren-17-yl)furan-2(5H)-one]	6.9		
CC1CN(C2CCCCC2)CCC(O[C@@H]2C(C)O[C@@H](OC3C(C)OC(O[C@H]4CC[C@@]5(C)C(CCC6C5CC(O)[C@]5(C)[C@@H](C7=CC(=O)OC7)CC[C@]65O)C4)C[C@@H]3O)C[C@@H]2O)O1 (stereo in doubt) [DcH, 4-((3S,5R,8R,9S,10S,12R,13S,14S,17R)-3-(((2S,4S,5R,6R)-5-(((2S,4S,5S,6R)-5-((4-cyclohexyl-2-methyl-1,4-oxazepan-7-yl)oxy)-4-hydroxy-6-methyltetrahydro-2H-pyran-2-yl)oxy)-4-hydroxy-6-methyltetrahydro-2H-pyran-2-yl)oxy)-12,14-dihydroxy-10,13-dimethylhexadecahydro-1H-cyclopenta[a]phenanthren-17-yl)furan-2(5H)-one]		10-12	
CC1CN(C2CC2)CCC(O[C@@H]2C(C)O[C@@H](O[C@@H]3C(C)O[C@@H](O[C@H]4CC[C@@]5(C)C(CCC6C5CC(O)[C@]5(C)[C@@H](C7=CC(=O)OC7)CC[C@]65O)C4)C[C@@H]3O)C[C@@H]2O)O1 (stereo in doubt) [DcP, 4-((3S,5R,8R,9S,10S,12R,13S,14S,17R)-3-(((2R,4S,5S,6R)-5-(((2S,4S,5S,6R)-5-((4-cyclopropyl-2-methyl-1,4-oxazepan-7-yl)oxy)-4-hydroxy-6-methyltetrahydro-2H-pyran-2-yl)oxy)-4-hydroxy-6-methyltetrahydro-2H-pyran-2-yl)oxy)-12,14-dihydroxy-10,13-dimethylhexadecahydro-1H-cyclopenta[a]phenanthren-17-yl)furan-2(5H)-one]	7.5		
CC1CN(C2CCCC2)CCC(O[C@@H]2C(C)O[C@@H](OC3C(C)OC(O[C@H]4CC[C@@]5(C)C(CCC6C5CC(O)[C@]5(C)[C@@H](C7=CC(=O)OC7)CC[C@]65O)C4)C[C@@H]3O)C[C@@H]2O)O1 (stereo in doubt) [DcPe, 4-((3S,5R,8R,9S,10S,12R,13S,14S,17R)-3-(((2S,4S,5R,6R)-5-(((2S,4S,5S,6R)-5-((4-cyclopentyl-2-methyl-1,4-oxazepan-7-yl)oxy)-4-hydroxy-6-methyltetrahydro-2H-pyran-2-yl)oxy)-4-hydroxy-6-methyltetrahydro-2H-pyran-2-yl)oxy)-12,14-dihydroxy-10,13-dimethylhexadecahydro-1H-cyclopenta[a]phenanthren-17-yl)furan-2(5H)-one]		5	
CC1CN(CC(F)(F)F)CCC(O[C@@H]2[C@H](C)O[C@@H](O[C@@H]3[C@H](C)O[C@@H](O[C@H]4CC[C@@]5(C)C(CCC6C5C[C@H](O)[C@]5(C)[C@@H](C7=CC(=O)OC7)CC[C@]65O)C4)C[C@@H]3O)C[C@@H]2O)O1 (stereo partly drawn) [DCF3]	4.1	9.6	
CCN1CCC(O[C@@H]2[C@H](C)O[C@@H](O[C@@H]3[C@H](C)O[C@@H](O[C@H]4CC[C@@]5(C)C(CCC6C5C[C@H](O)[C@]5(C)[C@@H](C7=CC(=O)OC7)CC[C@]65O)C4)C[C@@H]3O)C[C@@H]2O)OC(C)C1 (stereo partly drawn) [DEt]	5.9	9.5	
CC1CN(CC(N)=O)CCC(OC2C(O)CC(OC3C(O)CC(OC4CCC5(C)C(CCC6C5CC(O)C5(C)C(C7=CC(=O)OC7)CCC65O)C4)OC3C)OC2C)O1 (stereo not drawn) [DGlyN, reference compound]			coincides with other observations
CCCN1CCC(O[C@@H]2[C@H](C)O[C@@H](O[C@@H]3[C@H](C)O[C@@H](O[C@H]4CC[C@@]5(C)C(CCC6C5C[C@H](O)[C@]5(C)[C@@H](C7=CC(=O)OC7)CC[C@]65O)C4)C[C@@H]3O)C[C@@H]2O)OC(C)C1 (stereo partly drawn) [DP]	4.8	8.8	
CC1CN(C[Si](C)(C)C)CCC(OC2C(O)CC(OC3C(O)CC(OC4CCC5(C)C(CCC6C5CC(O)C5(C)C(C7=CC(=O)OC7)CCC65O)C4)OC3C)OC2C)O1 (stereo not drawn) [DTMS]	3	6.5	
CC1CN(C(C)C)CCC(O[C@@H]2[C@H](C)O[C@@H](O[C@@H]3[C@H](C)O[C@@H](O[C@H]4CC[C@@]5(C)C(CCC6C5C[C@H](O)[C@]5(C)[C@@H](C7=CC(=O)OC7)CC[C@]65O)C4)C[C@@H]3O)C[C@@H]2O)O1 (stereo partly drawn) [DiP]	5.1		
C[C@H]1O[C@@H](O[C@H]2[C@@H](O)C[C@H](O[C@H]3[C@@H](O)C[C@H](O[C@H]4CC[C@@]5(C)[C@H](CC[C@@H]6[C@@H]5C[C@@H](O)[C@]5(C)[C@@H](C7=CC(=O)OC7)CC[C@]65O)C4)O[C@@H]3C)O[C@@H]2C)C[C@H](O)[C@@H]1O [Digoxin, digoxin, reference compound]			neither digoxin nor DiB had a significant effect
CC1CN(C(C)(C)C)CCC(O[C@@H]2[C@H](C)O[C@@H](O[C@@H]3[C@H](C)O[C@@H](O[C@H]4CC[C@@]5(C)C(CCC6C5C[C@H](O)[C@]5(C)[C@@H](C7=CC(=O)OC7)CC[C@]65O)C4)C[C@@H]3O)C[C@@H]2O)O1 (stereo partly drawn) [DtB]	6.2	8.2	

Reference: patent US11077128B2, “Selective inhibitors of Alpha2-containing isoforms of Na,K-ATPase and use thereof for reduction of intraocular pressure” (Yeda Research and Development Co. Ltd., priority 2015, dated 2021)
